21 molecules from patent publication US9365522B2, “Pyrazole amide derivative” (AMGEN INC., priority 2015, dated 2016) can be followed below.

This test addresses T1, human RORγ-LBD (Homo sapiens, UniProt P51449).
T1 construct: made in house; host or cells: E. coli (BL-21)
T1 sequence (P51449 262-518): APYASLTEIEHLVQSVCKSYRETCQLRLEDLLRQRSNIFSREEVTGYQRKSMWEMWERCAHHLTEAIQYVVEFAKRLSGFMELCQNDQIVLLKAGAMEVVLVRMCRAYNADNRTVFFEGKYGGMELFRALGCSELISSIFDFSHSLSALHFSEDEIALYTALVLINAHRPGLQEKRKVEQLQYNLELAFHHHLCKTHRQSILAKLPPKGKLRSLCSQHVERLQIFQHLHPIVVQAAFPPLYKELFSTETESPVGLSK
In words: ROR gamma coactivator peptide recruitment Alphascreen assay (RORγ-LBD binding to GRIP1 coactivator peptide). To be noted: 5 nM human RORγ-LBD, 30 nM 7-β-hydroxycholesterol, 50 nM biotinylated GRIP1 coactivator peptide, overnight incubation at room temperature; read-out: result (pIC50, RORγ coactivator peptide recruitment Alphascreen assay) (converted). The format is biochemical. The method, boiled down: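 His/Flag-tagged human RORγ-LBD (aa 262-518, E. coli-expressed, 5 nM) with agonist 7-β-hydroxycholesterol (30 nM) and biotinylated GRIP1 LXXLL peptide (50 nM) in HEPES pH 7.4 buffer, 2.5% DMSO. Compound 1-in-2 dilutions; Alphascreen bead signal read after overnight incubation at room temperature; pIC50 calculated.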
For orientation: Alpha assays give light when donor and acceptor beads are brought close together.

As to `CC(C)(C)CN(CC(=O)c1c(Cl)cncc1Cl)C(=O)c1cnn([C@H]2C[C@]3(C[C@H](C(=O)O)C3)C2)c1C(F)(F)F` (stereo partly drawn) [Example 836, (4R/S)-6-(4-((2-(3,5-dichloro-4-pyridinyl)-2-oxoethyl)(2,2-dimethylpropyl)carbamoyl)-5-(trifluoromethyl)-1H-pyrazol-1-yl)spiro[3.3]heptane-2-carboxylic acid], the IC50 is 30.9 nM.
As to `CC1(C)CC[C@@H](CN(CC(=O)c2c(Cl)cccc2Cl)C(=O)c2cnn([C@H]3CC[C@](C)(C(=O)O)CC3)c2C(F)(F)F)O1` [Example 838, trans-4-(4-((2-(2,6-dichlorophenyl)-2-oxoethyl)(((2S)-5,5-dimethyltetrahydro-2-furanyl)methyl)carbamoyl)-5-(trifluoromethyl)-1H-pyrazol-1-yl)-1-methylcyclohexanecarboxylic acid], the IC50 was 13.8 nM.
On to `CC1(C)CC[C@H](CN(CC(=O)c2c(Cl)cccc2Cl)C(=O)c2cnn([C@H]3CC[C@](C)(C(=O)O)CC3)c2C(F)(F)F)O1` [Example 839, trans-4-(4-((2-(2,6-dichlorophenyl)-2-oxoethyl)(((2S)-5,5-dimethyltetrahydro-2-furanyl)methyl)carbamoyl)-5-(trifluoromethyl)-1H-pyrazol-1-yl)-1-methylcyclohexanecarboxylic acid], for which the IC50 is 7.24 nM.
`C[C@]1(C(=O)O)CC[C@H](n2ncc(C(=O)N(C[C@H](O)c3c(Cl)cncc3Cl)CC3(F)CC3)c2C(F)(F)F)CC1` [Example 840, trans-4-(4-(((2R)-2-(3,5-dichloro-4-pyridinyl)-2-hydroxyethyl)((1-fluorocyclopropyl)methyl)carbamoyl)-5-(trifluoromethyl)-1H-pyrazol-1-yl)-1-methylcyclohexanecarboxylic acid]: the IC50 is 240 nM.
Consider `CC(C)(C)CN(CC(=O)c1c(Cl)cncc1Cl)C(=O)c1cnn([C@H]2CC[C@@H](CS(C)(=O)=O)CC2)c1C(F)(F)F` [Example 841, N-(2-(3,5-dichloro-4-pyridinyl)-2-oxoethyl)-N-(2,2-dimethylpropyl)-1-(cis-4-((methylsulfonyl)methyl)cyclohexyl)-5-(trifluoromethyl)-1H-pyrazole-4-carboxamide], for which the IC50 was 195 nM.
The value for `COC1(CN(CC(=O)c2c(Cl)cncc2Cl)C(=O)c2cnn([C@H]3CC[C@](C)(C(=O)O)CC3)c2C(F)(F)F)CC1` [Example 844, trans-4-(4-((2-(3,5-dichloro-4-pyridinyl)-2-oxoethyl)((1-methoxycyclopropyl)methyl)carbamoyl)-5-(trifluoromethyl)-1H-pyrazol-1-yl)-1-methylcyclohexanecarboxylic acid] was 30.2 nM; that for `C[C@@H]1C[C@@H](n2ncc(C(=O)N(CC(=O)c3c(Cl)ccc(F)c3Cl)[C@H]3C[C@@H]4[C@H](C3)C4(C)C)c2C(F)(F)F)CC[C@@H]1C(=O)O` [Example 845, (1S,2R,4S)-4-(4-((2-(2,6-dichloro-3-fluorophenyl)-2-oxoethyl)((1R,3r,5S)-6,6-dimethylbicyclo[3.1.0]hexan-3-yl)carbamoyl)-5-(trifluoromethyl)-1H-pyrazol-1-yl)-2-methylcyclohexanecarboxylic acid] was 1.45 nM; that for `CC1(C)[C@@H]2C[C@H](N(CC(=O)c3c(Cl)cccc3Cl)C(=O)c3cnn([C@H]4C[C@@H](CC(=O)O)C4)c3C(F)(F)F)C[C@@H]21` [Example 846, (cis-3-(4-((2-(2,6-dichlorophenyl)-2-oxoethyl)((1R,3r,5S)-6,6-dimethylbicyclo[3.1.0]hex-3-yl)carbamoyl)-5-(trifluoromethyl)-1H-pyrazol-1-yl)cyclobutyl)acetic acid] was 2.4 nM.
As for `CC(C)(F)CN(CC(=O)c1c(Cl)cncc1Cl)C(=O)c1cnn([C@H]2C[C@@]3(C[C@H](C(=O)O)C3)C2)c1C(F)(F)F` (stereo partly drawn) [Example 847, (4s)-6-(4-((2-(3,5-dichloro-4-pyridinyl)-2-oxoethyl)(2-fluoro-2-methylpropyl)carbamoyl)-5-(trifluoromethyl)-1H-pyrazol-1-yl)spiro[3.3]heptane-2-carboxylic acid], the IC50 was 21.9 nM.
The value for `C[C@@H]1C[C@@H](n2ncc(C(=O)N(CC(=O)c3c(Cl)cccc3Cl)[C@H]3CCC34CCC4)c2C(F)(F)F)CC[C@@H]1C(=O)O` [Example 848, (1S,2R,4S)-4-(4-((2-(2,6-dichlorophenyl)-2-oxoethyl)((1S)-spiro[3.3]hept-1-yl)carbamoyl)-5-(trifluoromethyl)-1H-pyrazol-1-yl)-2-methylcyclohexanecarboxylic acid] was 1.32 nM; that for `C[C@@H]1C[C@@H](n2ncc(C(=O)N(CC(=O)c3c(Cl)cccc3Cl)[C@@H]3CCC34CCC4)c2C(F)(F)F)CC[C@@H]1C(=O)O` [Example 849, (1S,2R,4S)-4-(4-((2-(2,6-dichlorophenyl)-2-oxoethyl)((1R)-spiro[3.3]hept-1-yl)carbamoyl)-5-(trifluoromethyl)-1H-pyrazol-1-yl)-2-methylcyclohexanecarboxylic acid] was 8.71 nM.
Take `CCOC(C)(C)CN(CC(=O)c1c(Cl)cncc1Cl)C(=O)c1cnn([C@H]2CC[C@](C)(C(=O)O)CC2)c1C(F)(F)F` [Example 850, trans-4-(4-((2-(3,5-dichloro-4-pyridinyl)-2-oxoethyl)(2-ethoxy-2-methylpropyl)carbamoyl)-5-(trifluoromethyl)-1H-pyrazol-1-yl)-1-methylcyclohexanecarboxylic acid]: the IC50 is 12.9 nM.
The value for `C[C@@H]1C[C@@H](n2ncc(C(=O)N(CC(=O)c3c(Cl)cncc3Cl)CC3CCC4(CC3)CC4)c2C(F)(F)F)CC[C@@H]1C(=O)O` [Example 852, (1S,2R,4S)-4-(4-((2-(3,5-dichloro-4-pyridinyl)-2-oxoethyl)(spiro[2.5]oct-6-ylmethyl)carbamoyl)-5-(trifluoromethyl)-1H-pyrazol-1-yl)-2-methylcyclohexanecarboxylic acid] was 891 nM.
Under `C[C@]1(C(=O)O)CC[C@H](n2ncc(C(=O)N(CC(=O)c3c(Cl)cncc3Cl)C[C@]34CC[C@H](CC3)O4)c2C(F)(F)F)CC1` [Example 853, trans-4-(4-((2-(3,5-dichloro-4-pyridinyl)-2-oxoethyl)((1s,4s)-7-oxabicyclo[221]hept-1-ylmethyl)carbamoyl)-5-(trifluoromethyl)-1H-pyrazol-1-yl)-1-methylcyclohex anecarboxylic acid] stands 17 nM; under `C[C@]1(C(=O)O)CC[C@H](n2ncc(C(=O)N(CC(=O)c3c(Cl)cncc3Cl)CC34CC(C3)C4)c2C(F)(F)F)CC1` [Example 854, trans-4-(4-((bicyclo[1.1.1]pent-1-ylmethyl)(2-(3,5-dichloro-4-pyridinyl)-2-oxoethyl)carbamoyl)-5-(trifluoromethyl)-1H-pyrazol-1-yl)-1-methylcyclohexanecarboxylic acid], 4.68 nM; under `C[C@H]1C[C@@](C)(C(=O)O)CC[C@H]1n1ncc(C(=O)N(CC(=O)c2c(Cl)cncc2Cl)CC(C)(C)C)c1C(F)(F)F` [Example 856, (1S,3S,4R)-4-(4-((2-(3,5-dichloro-4-pyridinyl)-2-oxoethyl)(2,2-dimethylpropyl)carbamoyl)-5-(trifluoromethyl)-1H-pyrazol-1-yl)-1,3-dimethylcyclohexanecarboxylic acid], 67.6 nM.
Under `C[C@@H]1C[C@](C)(C(=O)O)CC[C@@H]1n1ncc(C(=O)N(CC(=O)c2c(Cl)cncc2Cl)CC(C)(C)C)c1C(F)(F)F` [Example 857, (1R,3R,4S)-4-(4-((2-(3,5-dichloro-4-pyridinyl)-2-oxoethyl)(2,2-dimethylpropyl)carbamoyl)-5-(trifluoromethyl)-1H-pyrazol-1-yl)-1,3-dimethylcyclohexanecarboxylic acid] stands 33.9 nM; under `CC1(C)[C@@H]2C[C@H](N(CC(=O)c3c(Cl)cccc3Cl)C(=O)c3cnn([C@H]4C[C@@H](CC(=O)O)C4)c3C(F)(F)F)C[C@@H]21` [Example 859, (cis-3-(4-((2-(2,6-dichlorophenyl)-2-oxoethyl)((1R,3r,5S)-6,6-dimethylbicyclo[3.1.0]hex-3-yl)carbamoyl)-5-(trifluoromethyl)-1H-pyrazol-1-yl)cyclobutyl)acetic acid], 6.03 nM; under `CC(C)(C)CN(CC(=O)c1c(Cl)cncc1Cl)C(=O)c1cnn([C@H]2CC[C@]3(CC2)C[C@@H]3C(=O)O)c1C(F)(F)F` [Example 860, (1R,3r,6R)-6-(4-((2-(3,5-dichloro-4-pyridinyl)-2-oxoethyl)(2,2-dimethylpropyl)carbamoyl)-5-(trifluoromethyl)-1H-pyrazol-1-yl)spiro[2.5]octane-1-carboxylic acid], 11.5 nM.
For `C[C@@H]1C[C@H](n2ncc(C(=O)N(CC(=O)c3c(Cl)cncc3Cl)CC(C)(C)C)c2C(F)(F)F)CC[C@]1(C)C(=O)O` [Example 862, (1S,3S,4R)-4-(4-((2-(3,5-dichloro-4-pyridinyl)-2-oxoethyl)(2,2-dimethylpropyl)carbamoyl)-5-(trifluoromethyl)-1H-pyrazol-1-yl)-1,2-dimethylcyclohexanecarboxylic acid], the IC50 was 38 nM.
The value for `CC1(CN(CC(=O)c2c(Cl)cncc2Cl)C(=O)c2cnn([C@H]3CC[C@](C)(C(=O)O)CC3)c2C(F)(F)F)CC(F)(F)C1` [Example 863, trans-4-(4-((2-(3,5-dichloro-4-pyridinyl)-2-oxoethyl)((3,3-difluoro-1-methylcyclobutyl)methyl)carbamoyl)-5-(trifluoromethyl)-1H-pyrazol-1-yl)-1-methylcyclohexanecarboxylic acid] was 6.46 nM.
